According to patent US4442087A (priority 1979, dated 1984):

Experiments:
Type in all cases: cell-based
[1] = tested on: Rabbit spleen cells (RK-13 cells used for determination); experiment: IF induction in vitro, rabbit cells; settings: 1.0 μg/ml, 25 °C 24 h
Procedure: (§1) (A) IF induction and determination of IF activity:
(§2) A spleen cell suspension (10^7 cells/ml) was prepared by the method of hereinafter described Experiment 1 using an Eagle MEM medium (commercial product of Nissui Seiyaku K.K., Tokyo) containing a 10% calf serum (which was replaced by a 10% fetal cattle serum in the cases of human tests), each of which fraction (1 ml) was added with the sample of the active substance at a given concentration and incubated at a given temperature. The cultured liquor was centrifuged to separate a supernatant for use to determine the IF activity. Furthermore, in the cases of human tests, the fresh spleen was collected from a person (adult killed by external wounds) and used for the preparation of a leucocytes suspension on each occasion, and also blood was collected from the vein at the armpit of a person (adult, healthy) from which the serum was separated to use for the preparation of a serum suspension on each occasion. The IF activities were determined by using the cells shown in Table 5 by the method of hereinafterdescribed Experiment 1 and indicated in Table 6.

[2] = tested on: Mouse spleen cells (L cells used for determination); experiment: IF induction in vitro, mouse cells; settings: 1.0 μg/ml, 37 °C 24 h
Procedure: as §1, §2

[3] = tested on: Human spleen cells (FL cells used for determination); experiment: IF induction in vitro, human spleen cells; settings: 1.0 μg/ml, 25 °C 24 h
Procedure: as §1, §2

**Q.** Which “IF activity in vitro” value [1] does the source give for Poly: IC here?
**A.** 220

**Q.** What about the “IF activity in vitro” value [2] of the same substance?
**A.** 120

**Q.** And the “IF activity in vitro” value [3]?
**A.** < 5
